Data as given in patent publication US20230303549A1, “SUBSTITUTED HETEROARYLOXYPYRIDINES, THE SALTS THEREOF AND THEIR USE AS HERBICIDAL AGENTS” (Bayer Aktiengesellschaft, priority 2020, published 2023).

Assays:
Format in all cases: in vivo
[1] = system: Abutilon theophrasti (ABUTH); assay: Post-emergence herbicidal efficacy at 320 g/ha, greenhouse pot test; details: visual rating vs untreated control after about 3 weeks
Protocol: (§1) Seeds of mono- and dicotyledonous weed plants were placed in plastic pots in sandy loam soil (doubly sown with in each case one species of mono- or dicotyledonous weed plants per pot), covered with soil and cultivated in a greenhouse under controlled growth conditions. 2 to 3 weeks after sowing, the test plants were treated at the one-leaf stage. The compounds of the invention, formulated in the form of wettable powders (WP) or as emulsion concentrates (EC), were applied onto the green parts of the plants as aqueous suspension or emulsion with addition of 0.5% additive at a water application rate of 600 liters per hectare (converted). After the test plants had been kept in the greenhouse under optimum growth conditions for about 3 weeks, the activity of the preparations was rated visually in comparison to untreated controls. For example, 100% activity=the plants have died, 0% activity=like control plants. Tables […] 11 below show the effects of selected compounds of the general formula (I) according to Table 1 on various harmful plants and an application rate corresponding to 320 g/ha, which were obtained by the experimental procedure mentioned above.

[2] = system: Bassia scoparia (KCHSC); assay: as above; details: visual rating vs untreated control after about 3 weeks
Protocol: as §1

[3] = system: Poa annua (POAAN); assay: as above; details: visual rating vs untreated control after about 3 weeks
Protocol: as §1

[4] = system: Abutilon theophrasti (ABUTH); assay: Pre-emergence herbicide efficacy at 320 g/ha, greenhouse pot test; details: visual scoring vs untreated control after about 3 weeks
Source text: (§2) Seeds of mono- and dicotyledonous weed plants were placed in plastic pots in sandy loam soil (doubly sown with in each case one species of mono- or dicotyledonous weed plants per pot) and covered with soil. The compounds of the invention, formulated in the form of wettable powders (WP) or as emulsion concentrates (EC), were then applied onto the surface of the covering soil as aqueous suspension or emulsion with addition of 0.5% additive at a water application rate of 600 liters per hectare (converted). After the treatment, the pots were placed in a greenhouse and kept under good growth conditions for the test plants. After about 3 weeks, the effect of the preparations was scored visually in comparison with untreated controls as percentages. For example, 100% activity=the plants have died, 0% activity=like control plants. Tables C1 to C12 below show the effects of selected compounds of the general formula (I) according to Table 1 on various harmful plants and an application rate corresponding to 320 g/ha, which were obtained by the experimental procedure mentioned above.

[5] = system: Alopecurus myosuroides (ALOMY); assay: as above; details: visual scoring vs untreated control after about 3 weeks
Source text: as §2

[6] = system: Amaranthus retroflexus (AMARE); assay: as above; details: visual scoring vs untreated control after about 3 weeks
Source text: as §2

[7] = system: Bassia scoparia (KCHSC); assay: as above
Source text: as §2

[8] = system: Echinochloa crus-galli (ECHCG); assay: as above; details: visual scoring vs untreated control after about 3 weeks
Source text: as §2

[9] = system: Matricaria inodora (MATIN); assay: as above; details: visual scoring vs untreated control after about 3 weeks
Source text: as §2

[10] = system: Poa annua (POAAN); assay: as above; details: visual scoring vs untreated control after about 3 weeks
Source text: as §2

[11] = system: Setaria viridis (SETVI); assay: as above; details: visual scoring vs untreated control after about 3 weeks
Source text: as §2

[12] = system: Stellaria media (STEME); assay: as above; details: visual scoring vs untreated control after about 3 weeks
Source text: as §2

[13] = system: Veronica persica (VERPE); assay: as above; details: visual scoring vs untreated control after about 3 weeks
Source text: as §2

[14] = system: Alopecurus myosuroides (ALOMY); assay: Post-emergence herbicidal efficacy at 320 g/ha, greenhouse pot test; details: visual rating vs untreated control after about 3 weeks
Protocol: as §1

[15] = system: Amaranthus retroflexus (AMARE); assay: as above; details: visual rating vs untreated control after about 3 weeks
Protocol: as §1

[16] = system: Stellaria media (STEME); assay: as above; details: visual rating vs untreated control after about 3 weeks
Protocol: as §1

[17] = system: Veronica persica (VERPE); assay: as above
Protocol: as §1

[18] = system: Amaranthus retroflexus (AMARE); assay: Post-emergence herbicidal efficacy at 80 g/ha, greenhouse pot test; details: visual rating vs untreated control after about 3 weeks
Protocol: (§3) Seeds of monocotyledonous and dicotyledonous weeds and crop plants were placed in sandy loam in plastic or organic planting pots, covered with soil and cultivated in a greenhouse under controlled growth conditions. 2 to 3 weeks after sowing, the test plants were treated at the one-leaf stage. The compounds of the invention, formulated in the form of wettable powders (WP) or as emulsion concentrates (EC), were then sprayed onto the green parts of the plants as aqueous suspension or emulsion with addition of 0.5% additive at a water application rate of 600 l/ha (converted). After the test plants had been kept in the greenhouse under optimum growth conditions for about 3 weeks, the activity of the preparations was rated visually in comparison to untreated controls. For example, 100% activity=the plants have died, 0% activity=like control plants. Tables B1 to B6 below show the effects of selected compounds of the general formula (I) according to Table 1 on various harmful plants and an application rate corresponding to 80 g/ha, which were obtained by the experimental procedure mentioned above.

[19] = system: Viola tricolor (VIOTR); assay: as above; details: visual rating vs untreated control after about 3 weeks
Protocol: as §3

[20] = system: Abutilon theophrasti (ABUTH); assay: Pre-emergence herbicide efficacy at 80 g/ha, greenhouse pot test; details: visual scoring vs untreated control after about 3 weeks
Source text: (§4) Seeds of monocotyledonous and dicotyledonous weed plants and crop plants were placed in plastic or organic planting pots and covered with soil. The compounds of the invention, formulated in the form of wettable powders (WP) or as emulsion concentrates (EC), were then applied to the surface of the covering soil as aqueous suspension or emulsion with addition of 0.5% additive at a water application rate of […] (converted). After the treatment, the pots were placed in a greenhouse and kept under good growth conditions for the test plants. After about 3 weeks, the effect of the preparations was scored visually in comparison with untreated controls as percentages. For example, 100% activity=the plants have died, 0% activity=like control plants. Tables D1 to D12 below show the effects of selected compounds of the general formula (I) according to Table 1 on various harmful plants and an application rate corresponding to 80 g/ha, which were obtained by the experimental procedure mentioned above.

[21] = system: Amaranthus retroflexus (AMARE); assay: as above; details: visual scoring vs untreated control after about 3 weeks
Source text: as §4

[22] = system: Viola tricolor (VIOTR); assay: as above; details: visual scoring vs untreated control after about 3 weeks
Source text: as §4

[23] = 320 g/ha, visual scoring vs untreated control after about 3 weeks
[24] = 320 g/ha, visual rating vs untreated control after about 3 weeks
[25] = dosage 1280 g/ha in Table C6, visual scoring after about 3 weeks

Compound | Post-emergence efficacy against Abutilon theophrasti (ABUTH) [1] [%] | Post-emergence efficacy against Bassia scoparia (KCHSC) [2] [%] | Post-emergence efficacy against Poa annua (POAAN) [3] [%] | Pre-emergence efficacy against Abutilon theophrasti (ABUTH) [4] [%] | Pre-emergence efficacy against Alopecurus myosuroides (ALOMY) [5] [%] | Pre-emergence efficacy against Amaranthus retroflexus (AMARE) [6] [%] | Pre-emergence efficacy against Bassia scoparia (KCHSC) [7, 23] [%] | Pre-emergence efficacy against Echinochloa crus-galli (ECHCG) [8] [%] | Pre-emergence efficacy against Matricaria inodora (MATIN) [9] [%] | Pre-emergence efficacy against Poa annua (POAAN) [10] [%] | Pre-emergence efficacy against Setaria viridis (SETVI) [11] [%] | Pre-emergence efficacy against Stellaria media (STEME) [12] [%] | Pre-emergence efficacy against Veronica persica (VERPE) [13] [%] | Post-emergence efficacy against Alopecurus myosuroides (ALOMY) [14] [%] | Post-emergence efficacy against Amaranthus retroflexus (AMARE) [15] [%] | Post-emergence action against Stellaria media (STEME) [16] [%] | Post-emergence efficacy against Veronica persica (VERPE) [17, 24] [%] | Pre-emergence efficacy against Bassia scoparia (KCHSC) [7, 25] [%] | other results
Cc1cc(C)c(-c2cc(C(F)(F)F)on2)c(Oc2ncc(F)cn2)n1 [Example I-6] | 90 | 90 | 90 | 100 | 90 | 100 | 90 | 100 | 100 | 100 | 100 | 100 | 100 | – | – | – | – | – | –
Cc1cc(C)c(-c2cc(C(F)F)no2)c(Oc2cnc(Cl)cn2)n1 [Example I-11] | – | 90 | – | 90 | 100 | 100 | 90 | – | 100 | 100 | 90 | 100 | 100 | 90 | 100 | 100 | 100 | – | –
Cc1cc(C)c(-c2cc(C(F)F)no2)c(Oc2ncc(Cl)cc2F)n1 [Example I-14] | 90 | 100 | – | 100 | – | 100 | – | – | 100 | 100 | 100 | 100 | – | 100 | 90 | 100 | – | 100 | Post-emergence efficacy against Veronica persica (VERPE) ([17]; dosage printed 80 g/ha in Table A9, visual rating after about 3 weeks): 100%; Post-emergence efficacy against Amaranthus retroflexus (AMARE) [18]: 100%; Post-emergence efficacy against Viola tricolor (VIOTR) [19]: 100%; Pre-emergence efficacy against Abutilon theophrasti (ABUTH) [20]: 80%; Pre-emergence efficacy against Amaranthus retroflexus (AMARE) [21]: 100%; Pre-emergence efficacy against Viola tricolor (VIOTR) [22]: 100%
Cc1cc(C)c(-c2cc(C3CC3)no2)c(Oc2ncc(F)cn2)n1 [Example I-178] | 90 | 90 | 100 | 100 | – | 100 | – | 100 | 100 | 100 | 100 | 100 | 100 | – | 100 | 100 | 100 | 90 | –
Cc1cc(C)c(-c2cc(C3CC3)no2)c(Oc2ncc(Cl)cn2)n1 [Example I-179] | 90 | 90 | 90 | 100 | – | 100 | – | 100 | 100 | 100 | 100 | 100 | 90 | – | 90 | 100 | 100 | 90 | –
Cc1cc(C)c(-n2cc(I)cn2)c(Oc2ncc(Cl)cn2)n1 [Example I-295] | – | 90 | – | 100 | – | 100 | – | 90 | 100 | 90 | 100 | 100 | 90 | – | 90 | 90 | 100 | 100 | –
